Source: patent US7163946B2 (Ligand Pharmaceuticals Incorporated, priority 2002, dated 2007)

What was measured:
hPR = molecular target: T1, hPR (Homo sapiens, UniProt P06401); experiment: T47D alkaline phosphatase assay, agonist mode; format: cell-based; conditions: T47D human breast cancer cells; for Emax: T47D, read-out: hPR Agonist T47D cells Eff. (%)
T1 sequence (P06401 679-933 limits assumed): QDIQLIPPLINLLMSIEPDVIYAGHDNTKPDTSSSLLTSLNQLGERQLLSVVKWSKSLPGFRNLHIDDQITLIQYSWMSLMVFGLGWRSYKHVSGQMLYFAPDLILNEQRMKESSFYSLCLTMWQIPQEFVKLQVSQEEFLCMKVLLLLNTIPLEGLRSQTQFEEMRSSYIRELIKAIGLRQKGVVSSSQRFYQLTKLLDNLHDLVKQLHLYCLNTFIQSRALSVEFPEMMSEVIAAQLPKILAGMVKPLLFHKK
Text: The potential tissue-selectivities of the selected analogues were examined by using the T47D alkaline phosphatase assay that was developed from human breast cancer cells with endogenous PRs.

immature rabbits = experiment: McPhail (Clauberg) rabbit assay of progestational activity; format: in vivo; conditions: Oryctolagus cuniculus; estradiol-primed immature rabbits; glandular changes of the uterus; read-out: potency (MAD in mg/kg), minimum active dose
Method: The superiority of the 7,9-difluoro analogue compounds of the present invention was further characterized utilizing the McPhail rabbit model according to the following illustrative Examples. The Clauberg or McPhail assay is a classic assay utilizing rabbits to measure progestational activity. […] In this assay, immature rabbits are treated initially with estradiol, which induces growth in the uterus. This is followed by a progestin, which causes a large change in the glandular content of the uterus. It is this change in the glandular component which is a measure of the progestational activity of a progestin. The measurement of these glandular changes is carried out histologically using stained sections of the uterus. The in vivo comparison between the new 7,9-difluoro compounds and analogues with substitution patterns different from 7,9-difluoro (U.S. Pat. Nos. 5,693,646 and 5,696,127) is tabulated in Tables 7 and 8. The in vivo potency of the progestins is presented as the minimum active dose (MAD).

[1] = tested on: ovariectomized female rats; experiment: Multi-endpoint adult rat model, uterus/breast tissue-selectivity; format: in vivo; conditions: ratio of relative efficacy to MPA in uterus verse in breast tissue at the same highest dose tested; estrone-treated ovariectomized rats, three days
Text: In this assay, advantage is taken of the fact that in the uterus, estrogens induce a proliferation and increase in the epithelial cell height and uterine wet weight, which can be antagonized by progestins. In the breast, estrogens induce a proliferation of the ductal network while progestins stimulate the growth of the lobular-alveolar end buds, which grow from the distal end of the ducts. […] Proliferating cells or inhibition of proliferating cells were quantitated either by measurements of cell height in sectioned and stained tissue samples or, in the case of the breast, immuno-histochemically labeled Brdu incorporated nuclei.

SMILES	EC50 (hPR) [nM]	Emax (hPR) [%]	minimal effective dose (immature rabbits) [mg/kg]	uterus/breast tissue-selectivity [1]
CC1=CC(C)(C)Nc2ccc3c(c21)C(c1ccccc1)Oc1c(F)cc(F)cc1-3 (racemic) [Compound 33, (±)-7,9-difluoro-5-phenyl-1,2-dihydro-2,2,4-trimethyl-5H-chromeno[3,4-f]quinoline]	35	62		
CC1=CC(C)(C)Nc2ccc3c(c21)C(c1cccc(C)c1)Oc1c(F)cc(F)cc1-3 (racemic) [Compound 34, (±)-7,9-difluoro-5-(3-methylphenyl)-1,2-dihydro-2,2,4-trimethyl-5H-chromeno[3,4-f]quinoline]	34	60	1	
CC1=CC(C)(C)Nc2ccc3c(c21)C(c1ccc(Cl)c(C)c1)Oc1c(F)cc(F)cc1-3 (racemic) [Compound 37, (±)-7,9-difluoro-5-(4-chloro-3-methylphenyl)-1,2-dihydro-2,2,4-trimethyl-5H-chromeno[3,4-f]quinoline]	130	50		
CC1=CC(C)(C)Nc2ccc3c(c21)C(c1cccc(Cl)c1)Oc1c(F)cc(F)cc1-3 (racemic) [Compound 41, (±)-7,9-difluoro-5-(3-chlorophenyl)-1,2-dihydro-2,2,4-trimethyl-5H-chromeno[3,4-f]quinoline]	42	54	0.75	
CC1=CC(C)(C)Nc2ccc3c(c21)C(c1cc2ccccc2s1)Oc1c(F)cc(F)cc1-3 (racemic) [Compound 63, (±)-7,9-difluoro-5-(benzo[b]thien-2-yl)-1,2-dihydro-2,2,4-trimethyl-5H-chromeno[3,4-f]quinoline]	20	61		
CC#CC1Oc2c(F)cc(F)cc2-c2ccc3c(c21)C(C)=CC(C)(C)N3 (racemic) [Compound 74, (±)-7,9-difluoro-5-(1-propynyl)-1,2-dihydro-2,2,4-trimethyl-5H-chromeno[3,4-f]quinoline]	4.6	58		
CC1=CC(C)(C)Nc2ccc3c(c21)/C(=C/c1ccccc1)Oc1c(F)cc(F)cc1-3 [Compound 10, 7,9-difluoro-5(Z)-benzylidene-1,2-dihydro-2,2,4-trimethyl-5H-chromeno[3,4-f]quinoline]	30	54		
CC1=CC(C)(C)Nc2ccc3c(c21)/C(=C/c1ccncc1)Oc1c(F)cc(F)cc1-3 [Compound 14, 7,9-difluoro-5(Z)-(4-picolylidene)-1,2-dihydro-2,2,4-trimethyl-5H-chromeno[3,4-f]quinoline]	49	58		
CC1=CC(C)(C)Nc2ccc3c(c21)/C(=C/c1cccc(F)c1)Oc1c(F)cc(F)cc1-3 [Compound 15, 7,9-difluoro-5(Z)-(3-fluorobenzylidene)-1,2-dihydro-2,2,4-trimethyl-5H-chromeno[3,4-f]quinoline]	19	56	0.18	
CC1=CC(C)(C)Nc2ccc3c(c21)/C(=C/c1cc(F)ccc1F)Oc1c(F)cc(F)cc1-3 [Compound 17, 7,9-difluoro-5(Z)-(2,5-difluorobenzylidene)-1,2-dihydro-2,2,4-trimethyl-5H-chromeno[3,4-f]quinoline]	12	62	0.25	2.7
COc1ccccc1/C=C1\Oc2c(F)cc(F)cc2-c2ccc3c(c21)C(C)=CC(C)(C)N3 [Compound 18, 7,9-difluoro-5(Z)-(2-methoxybenzylidene)-1,2-dihydro-2,2,4-trimethyl-5H-chromeno[3,4-f]quinoline]	17	57	2	
CC1=CC(C)(C)Nc2ccc3c(c21)/C(=C/c1cc(F)ccc1C)Oc1c(F)cc(F)cc1-3 [Compound 19, 7,9-difluoro-5(Z)-(2-methyl-5-fluorobenzylidene)-1,2-dihydro-2,2,4-trimethyl-5H-chromeno[3,4-f]quinoline]	8.7	65	0.1	3.5
CC1=CC(C)(C)Nc2ccc3c(c21)/C(=C/c1ccncc1C)Oc1c(F)cc(F)cc1-3 [Compound 20, 7,9-difluoro-5(Z)-(3-methyl-4-picolylidene)-1,2-dihydro-2,2,4-trimethyl-5H-chromeno[3,4-f]quinoline]	6.6	63	0.25	
COc1ccc(F)cc1/C=C1\Oc2c(F)cc(F)cc2-c2ccc3c(c21)C(C)=CC(C)(C)N3 [Compound 26, 7,9-difluoro-5(Z)-(2-methoxy-5-fluorobenzylidene)-1,2-dihydro-2,2,4-trimethyl-5H-chromeno[3,4-f]quinoline]	7.5	63	2	
CC1=CC(C)(C)Nc2ccc3c(c21)/C(=C/Br)Oc1c(F)cc(F)cc1-3 [Compound 29, 7,9-difluoro-5(Z)-bromomethylidene-1,2-dihydro-2,2,4-trimethyl-5H-chromeno[3,4-f]quinoline]	8.7	62		
CC1=CC(C)(C)Nc2ccc3c(c21)/C(=C/c1ccsc1)Oc1c(F)cc(F)cc1-3 [Compound 30, 7,9-difluoro-5(Z)-(3-thienylmethylidene)-1,2-dihydro-2,2,4-trimethyl-5H-chromeno[3,4-f]quinoline]	33	66		
CC1=CC(C)(C)Nc2ccc3c(c21)/C(=C/c1cccs1)Oc1c(F)cc(F)cc1-3 [Compound 31, 7,9-difluoro-5(Z)-(2-thienylmethylidene)-1,2-dihydro-2,2,4-trimethyl-5H-chromeno[3,4-f]quinoline]	14	66		3.5
